According to publication PMC6688997 (Nature Communications, 2019):
Where “and” joins values, the source holds several entries; their conditions need not be identical. Identical values can stand only once. Like-named read-outs stand apart in the source and are kept apart here.

Columns and labels:
[1] = tested on: phospho-ROS1 in JFCR-168 cells; assay: Immunoblot of ROS1 autophosphorylation; type: cell-based, human; details: 6 h
Protocol: (§1) Lysates were prepared using 1x SDS lysis buffer (1% SDS and 10% glycerol in 100 mM Tris–HCl [pH 7.5])[27]. […] All the primary antibody was used 1:1000 dilution for immunoblot analysis.

[2] = tested on: phospho-ROS1 in MGH193-1B cells; assay: Immunoblot of ROS1 autophosphorylation; type: cell-based, human; details: 6 h
Protocol: as §1

[3] = tested on: phospho-ROS1 in JFCR-165 cells; assay: Immunoblot of ROS1 autophosphorylation; type: cell-based, human; details: 6 h
Protocol: as §1

[4] = tested on: HCC78xe3-SLC34A2-ROS1-G2032R xenograft; type: in vivo, mouse
[5] = tested on: ROS1-rearranged NSCLC patients; details: cited from earlier work
[6] = tested on: Ba/F3-TPM3-NTRK1 cells (WT); assay: CellTiter-Glo cell viability assay; type: cell-based, murine; details: Mus musculus, 72 h
[7] = tested on: Ba/F3-CD74-ROS1 L1951R cells; assay: CellTiter-Glo cell viability assay; type: cell-based, murine; details: Mus musculus
[8] = tested on: SLC34A2-ROS1-G2032R overexpressing HCC78xe3 cells; assay: Cell viability in 3D culture, CellTiter-Glo; type: cell-based; details: 72 h
[9] = Crizotinib 100 mg/kg po; for Body Weight Change(%) (average / SD): N 6
[10] = tested on: parental Ba/F3 cells (with IL-3); assay: CellTiter-Glo cell viability assay; type: cell-based, murine; details: Mus musculus
[11] = tested on: Ba/F3-CD74-ROS1 D2033N cells; assay: CellTiter-Glo cell viability assay; type: cell-based, murine; details: Mus musculus
[12] = Body weight of Ba/F3-CD74-ROS1-WT xenograft mice; type: in vivo, mouse; details: Crizotinib 100 mg/kg po; for Body Weight Change(%) (average / SD): N 6
[13] = tested on: phospho-ROS1 in HCC78xe3-SLC34A2-ROS1-G2032R xenograft tumors; assay: Immunoblot of xenograft tumors; type: in vivo, mouse; details: 3 days treatment
[14] = tested on: Ba/F3-CD74-ROS1 L2026M cells; assay: CellTiter-Glo cell viability assay; type: cell-based, murine; details: Mus musculus
[15] = tested on: Ba/F3-CD74-ROS1 G2032R cells; assay: CellTiter-Glo cell viability assay; type: cell-based, murine; details: Mus musculus
[16] = tested on: HCC78xe3-SLC34A2-ROS1-WT xenograft; type: in vivo, mouse; design: Tumor volume LWW/2: unit not given here
[17] = tested on: Ba/F3-CD74-ROS1 cells (WT); assay: CellTiter-Glo cell viability assay; type: cell-based, murine; details: Mus musculus
[18] = tested on: Ba/F3-CD74-ROS1-WT xenograft; type: in vivo, mouse; details: for Tumor volume (average / SE): ROS1-WT xenograft, 100 mg/kg po
[19] = Crizotinib 100mg/kg, day 0, single mouse, in mm³
[20] = Crizotinib 100mg/kg, day 3, single mouse, in mm³
[21] = Crizotinib 100mg/kg, day 6, single mouse, in mm³
[22] = Crizotinib 100mg/kg, day 9, single mouse, in mm³
[23] = Crizotinib 100mg/kg, day 14, single mouse, in mm³
[24] = Crizotinib 100mg/kg, day 17, single mouse, in mm³
[25] = Crizotinib 100mg/kg, day 25, single mouse, in mm³
[26] = Crizotinib 100mg/kg, day 28, single mouse, in mm³
[27] = Crizotinib 100mg/kg, day 35, single mouse, in mm³
[28] = Crizotinib 100mg/kg, day 38, single mouse, in mm³
[29] = Crizotinib 100mg/kg, day 43, single mouse, in mm³
[30] = Crizotinib 100mg/kg, day 48, single mouse, in mm³
[31] = Crizotinib 100mg/kg, day 52, single mouse, in mm³
[32] = Crizotinib 100mg/kg, day 55, single mouse, in mm³

For C[C@@H](Oc1cc(-c2cnn(C3CCNCC3)c2)cnc1N)c1c(Cl)ccc(F)c1Cl [crizotinib, reference compound], the “Inhibition of autophosphorylation of ROS1” value (shortened to “Inhibition … of ROS1”) [1] was “potently inhibited”, the “Inhibition … of ROS1” value [2] was “potently inhibited” and the “Inhibition … of ROS1” value [3] was “potently inhibited”. For the same compound, the Tumor growth inhibition ([4]; 50 and 100 mg/kg once daily oral) was “highly resistant to crizotinib”, the “Tumor volume LWW/2” value [4, 19] was 154.5 and the “Tumor volume LWW/2” value [4, 20] was 162.2 and 132.5. For the same compound, the “Tumor volume LWW/2” value [4, 21] was 164.7 and 110.8, the “Tumor volume LWW/2” value [4, 22] was 136.2 and 132.2 and the “Tumor volume LWW/2” value [4, 23] was 155.8 and 119.8. For the same compound, the “Tumor volume LWW/2” value [4, 24] was 174.0 and 154.2, the “Tumor volume LWW/2” value ([4]; Crizotinib 100mg/kg, day 21, single mouse, in mm³) was 274.9 and 242.5 and the “Tumor volume LWW/2” value [4, 25] was 238.7 and 300.2. For the same compound, the “Tumor volume LWW/2” value [4, 26] was 247.6 and 347.9, the “Tumor volume LWW/2” value ([4]; Crizotinib 100mg/kg, day 31, single mouse, in mm³) was 309.9 and 336.1 and the “Tumor volume LWW/2” value [4, 27] was 418.2 and 509.9. For the same compound, the “Tumor volume LWW/2” value [4, 28] was 526.9 and 595.5, the “Tumor volume LWW/2” value [4, 29] was 740.1 and 596.0 and the “Tumor volume LWW/2” value [4, 30] was 745.2 and 699.2. The “Tumor volume LWW/2” value [4, 31] was 846.3 and 852.5, the “Tumor volume LWW/2” value [4, 32] was 921.5 and 834.7 and the “Tumor volume LWW/2” value ([4]; HCC78_Xe3_G2032R xenograft, BALB/c-nu mice, Crizotinib 50mg/kg, day 6, individual mice No. 7-12) was 127.8 and 126.6. For the same compound, the “Tumor volume LWW/2” value ([4]; HCC78_Xe3_G2032R xenograft, BALB/c-nu mice, Crizotinib 50mg/kg, day 17, individual mice No. 7-12) was 278.8 and 148.6 and 98.2, the Survival ([4]; Kaplan–Meier, 50 and 100 mg/kg) was “did not show any superiority to the control group” and the Median progression-free survival [5] was 19.2 months. For the same compound, the Overall response rate [5] was 72%, the IC50 [6] was 21.4 nM and the IC50 ([7]; 72 h) was […]. The GI50 ([7]; source data sheet) was […], the Cell growth inhibition [8] was “much higher than those to WT cells” and the “Body Weight Change(%) (average / SD)” value ([9]; day 0, average) was 0.0%. For the same compound, the “Body Weight Change(%) (individual)” value ([9]; day 0, individual animals) was 0%, the “Body Weight Change(%) (average / SD)” value ([9]; day 1, average) was -1.6% and the “Body Weight Change(%) (average / SD)” value ([9]; day 2, average) was -0.4%. For the same compound, the “Body Weight Change(%) (average / SD)” value ([9]; day 3, average) was -0.3%, the “Body Weight Change(%) (average / SD)” value ([9]; day 4, average) was 0.5% and the IC50 ([10]; BaF3, 72 h) was 812 nM. For the same compound, the GI50 ([10]; BaF3, source data sheet) was 798 nM, the GI50 [11] was […] and the “Body Weight Change(%) (average / SD)” value ([12]; day 0, average) was 0.0%. For the same compound, the “Body Weight Change(%) (individual)” value ([12]; day 0, individual animals) was 0%, the “Body Weight Change(%) (average / SD)” value ([12]; day 1, average) was -2.0% and the “Body Weight Change(%) (individual)” value ([12]; day 1, individual animals) was -1% and -1.4% and -4.2% and -2.7% and -0.5% and -2.3%. For the same compound, the “Body Weight Change(%) (average / SD)” value ([12]; day 2, average) was -1.9%, the “Body Weight Change(%) (individual)” value ([12]; day 2, individual animals) was -1.9% and -0.5% and -3.3% and -1.8% and the “Body Weight Change(%) (average / SD)” value ([12]; day 3, average) was -1.7%. The “Body Weight Change(%) (individual)” value ([12]; day 3, individual animals) was -2.4% and -1.4% and -4.2% and 2.3% and -2.8%, the “Body Weight Change(%) (average / SD)” value ([12]; day 4, average) was -4.4% and the “Body Weight Change(%) (individual)” value ([12]; day 4, individual animals) was -3.9% and -3.8% and -6.5% and -2.3% and -5.3% and -4.6%. The “Inhibition of phospho-ROS1 in tumors” value [13] was “in SLC34A2-ROS1-WT-expressing HCC78xe3 cells only”, the GI50 [14] was […] and the IC50 ([14]; 72 h) was […]. The IC50 ([15]; 72 h) was […], the GI50 ([15]; source data sheet) was […] and the “Tumor volume LWW/2” value [16, 19] was 172.7 and 167.7. For the same compound, the “Tumor volume LWW/2” value [16, 20] was 103.2 and 100.2, the “Tumor volume LWW/2” value [16, 21] was 67.8 and 77.3 and the “Tumor volume LWW/2” value [16, 22] was 39.9. For the same compound, the “Tumor volume LWW/2” value [16, 23] was 13.2, the “Tumor volume LWW/2” value [16, 24] was 18.9 and 19.3 and the “Tumor volume LWW/2” value [16, 25] was 5.2. The “Tumor volume LWW/2” value [16, 26] was 6.5, the “Tumor volume LWW/2” value [16, 27] was 8.7 and the “Tumor volume LWW/2” value [16, 28] was 5.4. For the same compound, the “Tumor volume LWW/2” value [16, 29] was 4.9, the “Tumor volume LWW/2” value [16, 30] was 7.2 and the “Tumor volume LWW/2” value [16, 31] was 15.8. For the same compound, the “Tumor volume LWW/2” value [16, 32] was 16.3, the “Tumor volume LWW/2” value ([16]; HCC78_Xe3_WT xenograft, BALB/c-nu mice, Crizotinib 50mg/kg, day 25, individual mice No. 7-12) was 44.9 and 36.7 and 19.6 and the “Tumor volume LWW/2” value ([16]; HCC78_Xe3_WT xenograft, BALB/c-nu mice, Crizotinib 50mg/kg, day 43, individual mice No. 7-12) was 75.9 and 129.8 and 100.2. The IC50 ([17]; 72 h) was […], the GI50 ([17]; source data sheet) was […] and the Tumor shrinkage ([18]; 100 mg/kg once daily oral, 4 days) was “induced tumor shrinkage”. The “Tumor volume (average / SE)” value ([18]; day 0, N 6) was 289 mm3, the “Tumor volume (average / SE)” value ([18]; day 2, N 6) was 151 mm3 and the “Tumor volume (average / SE)” value ([18]; day 4, N 6) was 44 mm3.
